Laboratory results from ChEMBL document CHEMBL1201862, “PubChem BioAssay data set” (2004).
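A five-concentration, 48-hour dose response in 96-well plates underlies each endpoint, interpolated linearly between surrounding concentrations. The concentration for 50% growth inhibition is given as GI50.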 Activity calls are given as the source filed them. Rule as the data show it: active = GI50 up to about 1.1 µM and inactive = higher.

How the values were obtained:
Experiment in all cases: NCI anticancer screen, dose series, 48 h
HT-29 = test system: HT-29
IGROV-1 = test system: IGROV-1
M14 = test system: M14
HOP-92 = test system: HOP-92
MDA-MB-231 = test system: MDA-MB-231
MDA-MB-435 = test system: MDA-MB-435
SNB-75 = test system: SNB-75
UACC-257 = test system: UACC-257
DU-145 = test system: DU-145
A498 = test system: A498
TK-10 = test system: TK-10
BT-549 = test system: BT-549
OVCAR-8 = test system: OVCAR-8
SF-539 = test system: SF-539
HL-60 = test system: HL-60
Hs-578T = test system: Hs-578T
SK-OV-3 = test system: SK-OV-3
NCI-H23 = test system: NCI-H23
SN12C = test system: SN12C
ACHN = test system: ACHN

Compound | GI50 (HT-29) | GI50 (IGROV-1) | GI50 (M14) | GI50 (HOP-92) | GI50 (MDA-MB-231) | GI50 (MDA-MB-435) | GI50 (SNB-75) | GI50 (UACC-257) | GI50 (DU-145) | GI50 (A498) | GI50 (TK-10) | GI50 (BT-549) | GI50 (OVCAR-8) | GI50 (SF-539) | GI50 (HL-60) | GI50 (Hs-578T) | GI50 (SK-OV-3) | GI50 (NCI-H23) | GI50 (SN12C) | GI50 (ACHN)
COc1ccc(-c2cc(-c3ccccc3)nc(/N=C\c3ccccc3)n2)c(O)c1 | > 27.9 µM (inactive) | 11.5 µM (inactive) | > 100 µM (inactive) | > 100 µM (inactive) | > 31.3 µM (inactive) | 3.72 µM (inactive) | > 100 µM (inactive) | > 100 µM (inactive) | 7.62 µM (inactive) | > 100 µM (inactive) | > 100 µM (inactive) | > 31.3 µM (inactive) | > 70.1 µM (inactive) | > 100 µM (inactive) | 2.71 µM (inactive) | > 100 µM (inactive) | 7.52 µM (inactive) | > 100 µM (inactive) | > 29 µM (inactive) | 6.47 µM (inactive)
NC(=O)NC1NC(=O)NC1=O (centres undefined) [ALLANTOIN] | > 100 µM (inactive) | > 100 µM (inactive) | > 100 µM (inactive) | > 100 µM (inactive) | > 100 µM (inactive) | > 100 µM (inactive) | > 100 µM (inactive) | > 100 µM (inactive) | > 100 µM (inactive) | > 100 µM (inactive) | > 100 µM (inactive) | > 100 µM (inactive) | > 100 µM (inactive) | > 100 µM (inactive) | > 100 µM (inactive) | > 100 µM (inactive) | > 100 µM (inactive) | > 100 µM (inactive) | > 100 µM (inactive) | > 100 µM (inactive)
CCn1c(-c2c(Cl)cc(O)cc2Cl)cc2c(Cl)cc(O)cc21 | 1.58 µM (inactive) | 3.21 µM (inactive) | 6.05 µM (inactive) | 13.8 µM (inactive) | 5.9 µM (inactive) | 1.67 µM (inactive) | 4.18 µM (inactive) | 11.7 µM (inactive) | 4.48 µM (inactive) | 13.9 µM (inactive) | 13.1 µM (inactive) | 4.5 µM (inactive) | 4.59 µM (inactive) | 3.24 µM (inactive) | 3.43 µM (inactive) | 5.07 µM (inactive) | 7.36 µM (inactive) | 7.78 µM (inactive) | 13.3 µM (inactive) | 4.66 µM (inactive)
CCc1nc(N)nc(N)c1-c1ccc(NC)c([N+](=O)[O-])c1 | 0.44 µM (active) | 0.904 µM (active) | 0.959 µM (active) | 8.81 µM (inactive) | 27.2 µM (inactive) | 0.586 µM (active) | 10.8 µM (inactive) | 18 µM (inactive) | 2.14 µM (inactive) | 2.43 µM (inactive) | 28.2 µM (inactive) | 26.1 µM (inactive) | 0.662 µM (active) | 1.47 µM (inactive) | 0.308 µM (active) | 23.6 µM (inactive) | 28.7 µM (inactive) | 0.944 µM (active) | 0.91 µM (active) | 0.594 µM (active)
CCCCn1c2c(n(CCCC)c1=[Se])-c1c(n(CCCC)c(=[Se])n1CCCC)S[Se][Se]S2 | 26.5 µM (inactive) | 7.1 µM (inactive) | 25.6 µM (inactive) | 2.01 µM (inactive) | 14.5 µM (inactive) | 49.9 µM (inactive) | 20.6 µM (inactive) | 32.8 µM (inactive) | 25 µM (inactive) | 33.5 µM (inactive) | 5.4 µM (inactive) | 27.7 µM (inactive) | 16.9 µM (inactive) | 20.8 µM (inactive) |  | 18.7 µM (inactive) | 24.5 µM (inactive) | 25.1 µM (inactive) | 24.6 µM (inactive) | 12 µM (inactive)
CS(=O)(=O)N1CC(CCl)c2ccc([N+](=O)[O-])cc21 (centres undefined) | > 100 µM (inactive) | > 100 µM (inactive) | > 100 µM (inactive) | > 100 µM (inactive) | > 100 µM (inactive) | > 100 µM (inactive) | < 0.01 µM (active) | > 100 µM (inactive) | > 100 µM (inactive) | > 100 µM (inactive) | > 100 µM (inactive) | > 100 µM (inactive) | > 100 µM (inactive) | > 100 µM (inactive) | > 100 µM (inactive) | 70.1 µM (inactive) | > 100 µM (inactive) | > 100 µM (inactive) | > 100 µM (inactive) | > 100 µM (inactive)
Cc1ccc2nc(/C=N/c3ccccc3Cl)cc(C)c2c1 | 18.4 µM (inactive) | 18.9 µM (inactive) | 13.2 µM (inactive) | 25.4 µM (inactive) | 13.2 µM (inactive) | 12.7 µM (inactive) | 19.9 µM (inactive) | 15.8 µM (inactive) | 46.7 µM (inactive) | > 100 µM (inactive) | 30.3 µM (inactive) | 16.1 µM (inactive) | 15.2 µM (inactive) | 16.5 µM (inactive) | 2.73 µM (inactive) | 25.5 µM (inactive) | 27.4 µM (inactive) | 22.2 µM (inactive) | 12.2 µM (inactive) | 30.7 µM (inactive)
C[n+]1c(-c2ccc(/C=N/NC(=O)C(=O)N/N=C/c3ccc(-c4cn5ccccc5[n+]4C)cc3)cc2)cn2ccccc21 | > 100 µM (inactive) | > 100 µM (inactive) | > 100 µM (inactive) | > 100 µM (inactive) | > 100 µM (inactive) | > 100 µM (inactive) | > 100 µM (inactive) | > 100 µM (inactive) | > 100 µM (inactive) | > 100 µM (inactive) | 56.6 µM (inactive) | > 100 µM (inactive) | > 100 µM (inactive) | > 100 µM (inactive) | > 100 µM (inactive) | > 100 µM (inactive) | > 100 µM (inactive) | > 100 µM (inactive) | > 100 µM (inactive) | > 100 µM (inactive)
O=C1C=C(c2ccccc2)O/C1=C\C(=O)c1ccc(Cl)cc1 | 3.58 µM (inactive) | 17.1 µM (inactive) | 19.6 µM (inactive) | 19.2 µM (inactive) | 18.1 µM (inactive) | 15.8 µM (inactive) | 4.84 µM (inactive) | 18.2 µM (inactive) | 43.6 µM (inactive) | 80.2 µM (inactive) | 20.1 µM (inactive) | 12.5 µM (inactive) | 22.6 µM (inactive) | 57.7 µM (inactive) | 2.18 µM (inactive) | 21.9 µM (inactive) | 98.4 µM (inactive) | 25.5 µM (inactive) | 3.66 µM (inactive) | 16.1 µM (inactive)
O=C(O)CSSCC(=O)O | > 100 µM (inactive) | > 100 µM (inactive) | > 100 µM (inactive) | > 100 µM (inactive) | > 100 µM (inactive) | > 100 µM (inactive) | > 100 µM (inactive) | > 100 µM (inactive) | > 100 µM (inactive) | > 100 µM (inactive) | > 100 µM (inactive) | > 100 µM (inactive) | > 100 µM (inactive) | > 100 µM (inactive) | > 100 µM (inactive) | > 100 µM (inactive) | > 100 µM (inactive) | > 100 µM (inactive) | > 100 µM (inactive) | > 100 µM (inactive)
O=C1C(CN2CCCC2)CCC1CN1CCCC1 (centres undefined) | 20 µM (inactive) | 27.9 µM (inactive) | 15.8 µM (inactive) | 14.4 µM (inactive) | 13.5 µM (inactive) | 17.6 µM (inactive) | 17.9 µM (inactive) | 16.8 µM (inactive) | 97.3 µM (inactive) | > 100 µM (inactive) | 18.3 µM (inactive) | 17.5 µM (inactive) | 18.3 µM (inactive) | 19.5 µM (inactive) | 2.42 µM (inactive) | 22.3 µM (inactive) | > 100 µM (inactive) | 20.7 µM (inactive) | 26.7 µM (inactive) | 15.8 µM (inactive)
CC(=O)OCC1OC(OCCCOP(=O)(OCCC#N)OCC2OC(n3cnc4c(N)ncnc43)C(OC(=O)c3ccccc3)C2OC(=O)c2ccccc2)C(OC(C)=O)C(OC(C)=O)C1OC(C)=O (centres undefined) | > 100 µM (inactive) |  | > 100 µM (inactive) | > 100 µM (inactive) | > 100 µM (inactive) | > 100 µM (inactive) | > 75 µM (inactive) | > 100 µM (inactive) | > 100 µM (inactive) | > 100 µM (inactive) | > 100 µM (inactive) | > 100 µM (inactive) | > 100 µM (inactive) | > 100 µM (inactive) | > 100 µM (inactive) | 28.7 µM (inactive) | > 100 µM (inactive) | > 100 µM (inactive) | > 100 µM (inactive) | > 100 µM (inactive)
Clc1ccc(-c2cn3c(nc4ccccc43)c(/C=C/c3ccco3)n2)cc1 | 62.8 µM (inactive) | 30.5 µM (inactive) | 58.1 µM (inactive) | 16.5 µM (inactive) | 28.4 µM (inactive) | 23.2 µM (inactive) | 18.4 µM (inactive) | 50.6 µM (inactive) | 75.7 µM (inactive) | 29.5 µM (inactive) | 24 µM (inactive) | 51.4 µM (inactive) |  | 71.1 µM (inactive) | 12.5 µM (inactive) | 14.8 µM (inactive) | 90.2 µM (inactive) | 31.4 µM (inactive) | 50 µM (inactive) | 37.9 µM (inactive)
COc1ccc(/C=N/N2C(=O)c3c(N)c(C#N)c(-c4ccccc4)c(-c4ccccc4)c3C2=O)cc1 |  | > 100 µM (inactive) | > 100 µM (inactive) | 84.3 µM (inactive) | > 100 µM (inactive) | > 100 µM (inactive) | 88.7 µM (inactive) | > 100 µM (inactive) | > 100 µM (inactive) | > 100 µM (inactive) | 42.4 µM (inactive) | > 100 µM (inactive) | 82.4 µM (inactive) | > 100 µM (inactive) | > 100 µM (inactive) | > 100 µM (inactive) |  |  | > 100 µM (inactive) | 44.7 µM (inactive)
